With `CCCCCCCCCCC(CO)CCCCCCCC` (centres unmarked) [Octyldodecanol], the “σ [mN/m] at 25° C. (surface tension)” value stood at 28.9 mN/m.
Under `CCCCCCC(CO)CCCC` (centres unmarked) [Butyl Octanol] stands 26.9 mN/m.

For the origin of these results see patent US20050142080A1, “Cosmetic or dermatological light protection formulation with a benzoxazole derivative” (Beiersdorf AG, priority 2001, published 2005).
